Experimental data as given in publication PMC9469208 (Journal of Medicinal Chemistry, 2022).
“And” between values parts separate entries of the source, which are not always exact repeats. Equal values may be shown once. Read-outs that look alike come from different tables or passages of the source.

Columns and labels:
D1 (h) = biological target: T1, D1 (h) (Homo sapiens, UniProt P21728); assay: D1 (h) functional assay; assay type: cell-based
T1 construct: purchased Cerep (Eurofins), Poitiers, France; Promega P450-Glo; in-house COS-7 uptake assays
T1 sequence (P21728 whole entry): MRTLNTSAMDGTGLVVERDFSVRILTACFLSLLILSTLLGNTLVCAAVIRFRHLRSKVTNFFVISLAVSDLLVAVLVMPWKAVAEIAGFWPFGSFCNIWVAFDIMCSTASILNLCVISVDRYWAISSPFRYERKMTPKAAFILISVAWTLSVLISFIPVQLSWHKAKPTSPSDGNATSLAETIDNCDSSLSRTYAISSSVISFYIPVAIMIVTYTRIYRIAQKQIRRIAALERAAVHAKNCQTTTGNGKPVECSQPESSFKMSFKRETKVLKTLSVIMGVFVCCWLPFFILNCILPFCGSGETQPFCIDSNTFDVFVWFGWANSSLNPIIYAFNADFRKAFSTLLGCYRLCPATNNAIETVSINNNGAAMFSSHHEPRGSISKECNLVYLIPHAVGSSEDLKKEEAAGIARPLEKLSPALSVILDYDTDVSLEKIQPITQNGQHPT
From the text: (§1) The general information is listed in the Supporting Information.

[1] = 100 mg/kg i.p., mice
mGluR5 (h) = biological target: T2, mGluR5 (h) (Homo sapiens, UniProt P41594); assay: mGluR5 (h) binding (agonist radioligand); settings: human recombinant, read-out: % Inhibition of control specific binding, mGluR5 (h)
T2 construct: purchased Cerep (Eurofins), Poitiers, France; Promega P450-Glo; in-house COS-7 uptake assays
From the text: as §1

hCav3.2 = hCav3.2 (Homo sapiens, UniProt O95180); assay: cell-based
recombinant human CYP2D6 = biological target: T3, recombinant human CYP2D6 (Homo sapiens, UniProt P10635); assay: CYP2D6 P450-Glo assay; assay type: in vitro ADME; settings: only at the highest concentration of 25 μM
T3 construct: purchased Cerep (Eurofins), Poitiers, France; Promega P450-Glo; in-house COS-7 uptake assays
From the text: (§2) The luminescent CYP3A4 P450-Glo and CYP2D6 P450-Glo assays and protocols were provided by Promega (Madison, WI).[98] The procedures were provided by the manufacturer and were similar as previously reported for the racemate I.[29]

mGluR1 = biological target: T4, mGluR1 (Rattus norvegicus, UniProt P23385); assay: mGluR1 binding (agonist radioligand); settings: read-out: % Inhibition of control specific binding, mGluR1
T4 construct: purchased Cerep (Eurofins), Poitiers, France; Promega P450-Glo; in-house COS-7 uptake assays

sst2 (h) = biological target: T5, sst2 (h) (Homo sapiens, UniProt P30874); assay: sst2 (h) functional assay; assay type: cell-based
T5 construct: purchased Cerep (Eurofins), Poitiers, France; Promega P450-Glo; in-house COS-7 uptake assays
T5 sequence (P30874 whole entry): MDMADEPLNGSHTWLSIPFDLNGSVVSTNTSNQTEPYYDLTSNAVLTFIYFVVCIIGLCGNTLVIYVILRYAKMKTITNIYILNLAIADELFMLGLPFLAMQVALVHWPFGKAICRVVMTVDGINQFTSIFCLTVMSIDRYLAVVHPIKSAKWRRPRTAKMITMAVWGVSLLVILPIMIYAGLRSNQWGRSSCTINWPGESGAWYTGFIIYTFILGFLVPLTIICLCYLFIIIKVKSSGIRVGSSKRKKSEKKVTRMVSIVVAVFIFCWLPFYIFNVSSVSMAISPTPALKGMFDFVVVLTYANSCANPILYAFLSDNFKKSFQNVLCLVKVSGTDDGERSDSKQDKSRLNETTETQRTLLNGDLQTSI
From the text: as §1

Glutamate, NMDA, Glycine = Glutamate, NMDA, Glycine (Rattus norvegicus, UniProt P35439); assay: Glutamate NMDA glycine [3H]MDL 105,519 binding; settings: read-out: % Inhibition of control specific binding, Glutamate, NMDA, Glycine [3H] MDL 105,519
From the text: as §1

recombinant human CYP2C9 = biological target: T6, recombinant human CYP2C9 (Homo sapiens, UniProt P11712); assay: CYP2C9 activity assay; assay type: in vitro ADME; settings: comparable to the racemate
T6 construct: purchased Cerep (Eurofins), Poitiers, France; Promega P450-Glo; in-house COS-7 uptake assays

mGlu2 (h) = biological target: T7, mGlu2 (h) (Homo sapiens, UniProt Q14416); assay: mGlu2 (h) binding (antagonist radioligand); settings: human recombinant (Chem-1 cells), read-out: % Inhibition of control specific binding, mGlu2 (h)
T7 construct: purchased Cerep (Eurofins), Poitiers, France; Promega P450-Glo; in-house COS-7 uptake assays
From the text: as §1

[2] = biological target: T8, Norepinephrine transporter (h) (Homo sapiens, UniProt P23975); assay: Norepinephrine transporter (h) (antagonist radioligand); assay type: binding; settings: read-out: % Inhibition, Norepinephrine transporter (h)
T8 construct: purchased Cerep (Eurofins), Poitiers, France; Promega P450-Glo; in-house COS-7 uptake assays
From the text: as §1

Dopamine transporter (h) = biological target: T9, Dopamine transporter (h) (Homo sapiens, UniProt Q01959); assay: Dopamine transporter (h) (antagonist radioligand); assay type: binding; settings: read-out: % Inhibition, Dopamine transporter (h)
T9 construct: purchased Cerep (Eurofins), Poitiers, France; Promega P450-Glo; in-house COS-7 uptake assays
From the text: as §1

[3] = biological target: T10, GLYT1 Glycine Transporter (Homo sapiens, UniProt P48067); assay: GLYT1 glycine transporter binding; settings: rat brain, listed as (R)-7 [(R)-AS-1]
T10 construct: purchased Cerep (Eurofins), Poitiers, France; Promega P450-Glo; in-house COS-7 uptake assays
T10 sequence (P48067 whole entry): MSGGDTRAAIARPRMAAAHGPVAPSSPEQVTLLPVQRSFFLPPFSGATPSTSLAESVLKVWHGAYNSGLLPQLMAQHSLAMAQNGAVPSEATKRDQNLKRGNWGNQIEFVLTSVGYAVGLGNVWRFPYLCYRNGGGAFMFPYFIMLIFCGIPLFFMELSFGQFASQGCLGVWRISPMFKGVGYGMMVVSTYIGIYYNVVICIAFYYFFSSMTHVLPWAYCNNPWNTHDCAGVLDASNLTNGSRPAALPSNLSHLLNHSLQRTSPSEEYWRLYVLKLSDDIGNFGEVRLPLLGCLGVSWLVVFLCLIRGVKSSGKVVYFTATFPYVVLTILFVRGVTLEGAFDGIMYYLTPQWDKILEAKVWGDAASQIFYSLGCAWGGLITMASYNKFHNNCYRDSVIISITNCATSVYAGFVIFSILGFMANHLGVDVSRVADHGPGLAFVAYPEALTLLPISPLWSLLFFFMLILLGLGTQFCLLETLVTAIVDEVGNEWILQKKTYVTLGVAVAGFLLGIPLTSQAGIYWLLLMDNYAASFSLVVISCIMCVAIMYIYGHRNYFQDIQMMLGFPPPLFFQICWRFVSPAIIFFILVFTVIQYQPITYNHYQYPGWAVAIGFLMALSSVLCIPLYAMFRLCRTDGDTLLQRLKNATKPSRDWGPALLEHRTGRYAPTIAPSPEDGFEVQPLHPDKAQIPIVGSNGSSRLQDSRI
From the text: as §1

GlyRA1 = biological target: T11, GlyRA1 (Homo sapiens, UniProt P23415); assay type: cell-based
T11 construct: purchased Cerep (Eurofins), Poitiers, France; Promega P450-Glo; in-house COS-7 uptake assays
T11 sequence (P23415 29-457): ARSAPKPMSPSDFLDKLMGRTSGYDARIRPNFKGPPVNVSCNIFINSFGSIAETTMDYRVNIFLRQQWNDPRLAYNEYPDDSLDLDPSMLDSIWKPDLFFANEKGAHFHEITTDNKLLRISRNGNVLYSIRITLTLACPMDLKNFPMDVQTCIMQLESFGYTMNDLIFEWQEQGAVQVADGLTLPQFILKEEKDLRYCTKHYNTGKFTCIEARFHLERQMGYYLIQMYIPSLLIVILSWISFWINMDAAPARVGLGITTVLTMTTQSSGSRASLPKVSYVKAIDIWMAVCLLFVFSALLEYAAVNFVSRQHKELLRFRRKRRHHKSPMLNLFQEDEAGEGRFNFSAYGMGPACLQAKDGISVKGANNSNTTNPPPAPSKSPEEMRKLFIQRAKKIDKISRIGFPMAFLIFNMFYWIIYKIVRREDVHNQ

CB1 (h) = biological target: T12, CB1 (h) (Homo sapiens, UniProt P21554); assay: CB1 (h) functional assay; assay type: cell-based
T12 construct: purchased Cerep (Eurofins), Poitiers, France; Promega P450-Glo; in-house COS-7 uptake assays
T12 sequence (P21554 whole entry): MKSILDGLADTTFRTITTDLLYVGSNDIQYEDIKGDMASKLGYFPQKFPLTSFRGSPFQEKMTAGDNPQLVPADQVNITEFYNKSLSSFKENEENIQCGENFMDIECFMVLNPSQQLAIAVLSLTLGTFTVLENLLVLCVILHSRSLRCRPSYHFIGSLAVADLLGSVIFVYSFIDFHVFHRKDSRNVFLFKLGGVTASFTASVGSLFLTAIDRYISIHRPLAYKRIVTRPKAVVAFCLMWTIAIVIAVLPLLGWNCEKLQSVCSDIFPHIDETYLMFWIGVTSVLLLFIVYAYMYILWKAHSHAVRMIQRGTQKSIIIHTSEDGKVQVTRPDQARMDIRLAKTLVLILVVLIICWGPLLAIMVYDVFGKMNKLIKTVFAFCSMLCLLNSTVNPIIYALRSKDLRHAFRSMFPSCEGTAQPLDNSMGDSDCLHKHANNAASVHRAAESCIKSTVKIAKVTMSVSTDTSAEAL
From the text: as §1

5-HT7 (h) = biological target: T13, 5-HT7 (h) (Homo sapiens, UniProt P34969); assay: 5-HT7 (h) functional assay; assay type: cell-based
T13 construct: purchased Cerep (Eurofins), Poitiers, France; Promega P450-Glo; in-house COS-7 uptake assays
T13 sequence (P34969 whole entry): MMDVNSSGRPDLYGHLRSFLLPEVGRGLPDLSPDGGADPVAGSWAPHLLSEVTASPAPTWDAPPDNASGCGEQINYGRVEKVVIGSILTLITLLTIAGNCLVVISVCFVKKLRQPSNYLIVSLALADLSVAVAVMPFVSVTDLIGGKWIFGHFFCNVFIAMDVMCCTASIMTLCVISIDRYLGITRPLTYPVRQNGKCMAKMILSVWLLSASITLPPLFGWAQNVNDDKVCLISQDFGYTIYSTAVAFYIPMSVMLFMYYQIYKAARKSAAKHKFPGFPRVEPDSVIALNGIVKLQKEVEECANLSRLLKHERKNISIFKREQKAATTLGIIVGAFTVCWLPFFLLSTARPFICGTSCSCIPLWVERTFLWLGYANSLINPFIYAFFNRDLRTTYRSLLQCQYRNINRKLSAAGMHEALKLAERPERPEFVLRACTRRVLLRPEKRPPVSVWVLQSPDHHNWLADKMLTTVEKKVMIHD
From the text: as §1

sst4 (h) = biological target: T14, sst4 (h) (Homo sapiens, UniProt P31391); assay: sst4 (h) functional assay; assay type: cell-based
T14 construct: purchased Cerep (Eurofins), Poitiers, France; Promega P450-Glo; in-house COS-7 uptake assays
T14 sequence (P31391 whole entry): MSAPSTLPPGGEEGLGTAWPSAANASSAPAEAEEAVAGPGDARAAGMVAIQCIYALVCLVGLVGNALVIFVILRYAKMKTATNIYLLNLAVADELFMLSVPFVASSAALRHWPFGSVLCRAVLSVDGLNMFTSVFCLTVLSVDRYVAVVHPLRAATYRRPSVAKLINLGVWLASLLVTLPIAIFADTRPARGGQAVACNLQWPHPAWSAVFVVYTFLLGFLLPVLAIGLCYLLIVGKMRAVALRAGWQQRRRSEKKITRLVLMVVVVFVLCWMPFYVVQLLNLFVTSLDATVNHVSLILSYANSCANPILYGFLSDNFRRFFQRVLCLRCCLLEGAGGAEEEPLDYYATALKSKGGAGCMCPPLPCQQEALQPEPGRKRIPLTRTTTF
From the text: as §1

5-HT6 (h) = biological target: T15, 5-HT6 (h) (Homo sapiens, UniProt P50406); assay: 5-HT6 (h) functional assay; assay type: cell-based
T15 construct: purchased Cerep (Eurofins), Poitiers, France; Promega P450-Glo; in-house COS-7 uptake assays
T15 sequence (P50406 whole entry): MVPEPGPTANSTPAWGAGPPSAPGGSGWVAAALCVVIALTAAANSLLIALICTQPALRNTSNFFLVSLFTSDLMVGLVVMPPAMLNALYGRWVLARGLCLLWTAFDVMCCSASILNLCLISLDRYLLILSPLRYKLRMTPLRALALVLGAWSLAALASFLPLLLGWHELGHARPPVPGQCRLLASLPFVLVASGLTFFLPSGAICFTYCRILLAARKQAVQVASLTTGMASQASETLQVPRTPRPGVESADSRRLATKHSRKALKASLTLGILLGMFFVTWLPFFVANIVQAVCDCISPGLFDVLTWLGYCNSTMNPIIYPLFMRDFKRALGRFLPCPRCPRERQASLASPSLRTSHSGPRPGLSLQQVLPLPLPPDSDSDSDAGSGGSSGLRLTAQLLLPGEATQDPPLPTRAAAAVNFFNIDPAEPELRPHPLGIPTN
From the text: as §1

Alpha 1A (h) = biological target: T16, Alpha 1A (h) (Homo sapiens, UniProt P35348); assay: Alpha 1A (h) functional assay; assay type: cell-based
T16 construct: purchased Cerep (Eurofins), Poitiers, France; Promega P450-Glo; in-house COS-7 uptake assays
T16 sequence (P35348 whole entry): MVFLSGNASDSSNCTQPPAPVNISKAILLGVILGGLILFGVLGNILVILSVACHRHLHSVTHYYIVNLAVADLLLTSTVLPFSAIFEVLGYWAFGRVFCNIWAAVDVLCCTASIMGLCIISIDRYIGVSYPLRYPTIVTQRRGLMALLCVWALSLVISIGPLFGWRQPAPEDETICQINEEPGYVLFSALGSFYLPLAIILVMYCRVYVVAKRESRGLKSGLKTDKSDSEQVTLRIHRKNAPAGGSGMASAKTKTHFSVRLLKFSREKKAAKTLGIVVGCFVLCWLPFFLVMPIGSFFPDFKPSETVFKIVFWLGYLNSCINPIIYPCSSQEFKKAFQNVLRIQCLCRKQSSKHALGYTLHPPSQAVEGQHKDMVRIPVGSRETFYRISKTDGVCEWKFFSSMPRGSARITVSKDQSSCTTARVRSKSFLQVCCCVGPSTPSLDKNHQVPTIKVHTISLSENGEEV
From the text: as §1

EAAT3 = EAAT3 (Homo sapiens, UniProt P43005); settings: transfected COS-7 cells
recombinant human CYP3A4 = biological target: T17, recombinant human CYP3A4 (Homo sapiens, UniProt P08684); assay: CYP3A4 P450-Glo assay; assay type: in vitro ADME
T17 construct: purchased Cerep (Eurofins), Poitiers, France; Promega P450-Glo; in-house COS-7 uptake assays
From the text: as §2

Acetylcholinesterase (h) = biological target: T18, Acetylcholinesterase (h) (Homo sapiens, UniProt P22303); assay: Acetylcholinesterase (h) enzymatic activity; assay type: biochemical; settings: read-out: % Inhibition, Acetylcholinesterase (h) enzymatic activity
T18 construct: purchased Cerep (Eurofins), Poitiers, France; Promega P450-Glo; in-house COS-7 uptake assays
From the text: as §1

human SV2A = biological target: T19, human SV2A (Homo sapiens, UniProt Q7L0J3); assay: SV2A radioligand binding assay ([3H]brivaracetam); settings: [3H]brivaracetam 3 nM, human SV2A-expressing CHO cell lysate
T19 construct: expressed in transfected cells; host or cells: CHO cells
T19 sequence (Q7L0J3 whole entry): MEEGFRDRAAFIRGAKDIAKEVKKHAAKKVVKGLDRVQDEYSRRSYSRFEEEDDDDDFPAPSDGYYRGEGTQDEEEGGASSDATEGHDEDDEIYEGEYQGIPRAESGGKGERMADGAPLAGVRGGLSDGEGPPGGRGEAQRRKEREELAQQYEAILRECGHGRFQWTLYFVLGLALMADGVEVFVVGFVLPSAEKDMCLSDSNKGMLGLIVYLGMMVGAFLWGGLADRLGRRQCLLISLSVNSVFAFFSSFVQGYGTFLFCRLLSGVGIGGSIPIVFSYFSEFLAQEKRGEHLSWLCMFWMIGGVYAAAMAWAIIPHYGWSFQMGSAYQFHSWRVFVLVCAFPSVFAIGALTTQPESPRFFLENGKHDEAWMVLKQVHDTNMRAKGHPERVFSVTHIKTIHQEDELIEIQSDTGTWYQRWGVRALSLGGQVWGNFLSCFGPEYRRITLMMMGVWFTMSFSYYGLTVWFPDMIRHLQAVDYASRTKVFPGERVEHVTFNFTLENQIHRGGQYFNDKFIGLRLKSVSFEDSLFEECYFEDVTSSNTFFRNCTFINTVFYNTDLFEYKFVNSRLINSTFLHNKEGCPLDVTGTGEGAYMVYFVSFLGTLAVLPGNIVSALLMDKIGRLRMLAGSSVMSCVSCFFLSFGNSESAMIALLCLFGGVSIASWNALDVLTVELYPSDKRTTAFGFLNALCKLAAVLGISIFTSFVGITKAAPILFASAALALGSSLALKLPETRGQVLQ
Protocol: (§3) The competitive radioligand-binding assay was essentially performed as previously described.[96],[97] The SV2A-containing preparations, either cell lysate of human SV2A-expressing CHO cells, or membrane preparations of mouse brain cortex, were incubated with the radioligand [^3H]brivaracetam (3 nM) in the absence or presence of test compound for 4 h. Incubation was performed in 500 μL of Tris-buffer (50 mM Tris–HCl, pH 7.4) containing 2 mM MgCl2 at 4 °C on a rocking shaker. […] The test compounds were dissolved in dimethyl sulfoxide (DMSO) and further diluted in DMSO. The DMSO concentration in all vials was adjusted to 2%. The separation of bound and unbound radioligand was performed via rapid vacuum filtration using GF/C glass fiber filters that had been presoaked in Tris-buffer containing 0.1% polyethyleneimine for 30 min. The filters were rapidly washed three times with about 1 mL of Tris-buffer each and subsequently placed in a drying oven at 50 °C for 90 min. The filters were then transferred to scintillation vials and 2.5 mL of scintillation cocktail (ProSafe FC+, Meridian Biotechnologies Ltd.) was added. After an incubation period of at least 9 h, radioactivity was measured in a scintillation counter. Results were analyzed by GraphPad Prism 7.0.

mouse SV2A = biological target: T20, mouse SV2A (Mus musculus, UniProt Q9JIS5); assay: SV2A radioligand binding assay ([3H]brivaracetam); settings: mouse brain cortex membranes
T20 construct: membrane preparations of mouse brain cortex; from tissue; host or cells: mouse brain cortex membranes
T20 sequence (Q9JIS5 whole entry): as the sequence (Q7L0J3 whole entry) above, with S62A, T71A, E144D, A154T, G440S, S482A, I572V, M634L counted along it
Protocol: as §3

hERG potassium channel = hERG potassium channel (Homo sapiens, UniProt Q12809); assay: in vitro
D2L (h) = biological target: T21, D2L (h) (Homo sapiens, UniProt P14416); assay: D2L (h) functional assay; assay type: cell-based
T21 construct: purchased Cerep (Eurofins), Poitiers, France; Promega P450-Glo; in-house COS-7 uptake assays
T21 sequence (P14416 whole entry): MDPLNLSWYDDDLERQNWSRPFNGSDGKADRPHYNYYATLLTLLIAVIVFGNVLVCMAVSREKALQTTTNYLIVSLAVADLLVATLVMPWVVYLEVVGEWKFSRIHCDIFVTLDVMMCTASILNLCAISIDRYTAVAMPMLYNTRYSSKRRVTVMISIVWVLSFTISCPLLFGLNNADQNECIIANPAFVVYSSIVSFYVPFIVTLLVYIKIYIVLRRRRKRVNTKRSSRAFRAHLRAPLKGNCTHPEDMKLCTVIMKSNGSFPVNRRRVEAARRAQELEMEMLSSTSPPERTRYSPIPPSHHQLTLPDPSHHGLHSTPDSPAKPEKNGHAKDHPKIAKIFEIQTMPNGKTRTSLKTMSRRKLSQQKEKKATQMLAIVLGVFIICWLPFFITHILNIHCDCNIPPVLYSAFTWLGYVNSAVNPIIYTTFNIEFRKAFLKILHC
From the text: as §1

EAAT1 = EAAT1 (Homo sapiens, UniProt P43003); settings: transfected COS-7 cells
[4] = 100 μM, listed as (R)-7 [(R)-AS-1]
[5] = 10 μM, listed as (R)-7 [(R)-AS-1]

## C[C@H](C(=O)NCc1ccccc1)N1C(=O)CCC1=O [(R)-7, (R)-N-Benzyl-2-(2,5-dioxopyrrolidin-1-yl)propanamide]
D1 (h); [4]
  % Effect, D1 (h) (Agonist effect): 1.70% and 1.70 (100 µM) %
D1 (h); read-out: % Inhibition, D1 (h) (Antagonist effect)
  inhibition at 100 µM: -2.57%
[1]; listed as (R)-7 [(R)-AS-1]
  AUC0–∞, brain: 2813.0 μg·min/mL(g) and 2813.04 μg·min/mL(g)
  AUC0–∞, serum: 4625.8 μg·min/mL(g) and 4625.78 μg·min/mL(g)
  Cmax, serum: 82.7 μg/mL(g) and 82.73 μg/mL(g)
[1]; noncompartmental approach
  total clearance: approx. 0.6 mL/min
mGluR5 (h)
  inhibition at 10 µM: -7.78%
hCav3.2; read-out: hCav3.2 % Inhibition, Mean
  inhibition at 100 µM: -0.79%
hCav3.2; read-out: hCav3.2 % Inhibition, n1
  inhibition at 100 µM: 5.25%
hCav3.2; read-out: hCav3.2 % Inhibition, n2
  inhibition at 100 µM: -6.84%
Recombinant human CYP2D6
  effect on CYP2D6: slight activation
mGluR1; 10 μM, rat brain
  inhibition at 10 µM: -6.72%
mGluR1
  inhibition at 100 µM: -6.72%
sst2 (h); [5]
  % Effect, sst2 (h) (Agonist effect): 0.50% and 0.50 (10 µM) %
sst2 (h); 50 μM, read-out: % Inhibition, sst2 (h) (Antagonist effect)
  inhibition at 50 µM: 5.25%
Glutamate, NMDA, Glycine
  inhibition at 10 µM: -3%
Recombinant human CYP2C9
  effect in the CYP2C9 assay: moderate inhibitory effect
mGlu2 (h)
  inhibition at 50 µM: -8%
[2]
  inhibition at 100 µM: 3.01%
Dopamine transporter (h)
  inhibition at 100 µM: -2.69%
[3]; 10 μM
  % Inhibition of control specific binding, GLYT1 Glycine Transporter: -2.00% and -1.00%
[3]; 100 μM
  % Inhibition of control specific binding, GLYT1 Glycine Transporter: -1.00% and -2.00%
GlyRA1
  GlyRA1 agonist, % Control, Mean: 1.94% and 1.94 (100 µM) %
  GlyRA1 agonist, % Control, n1: 1.83%
  GlyRA1 agonist, % Control, n2: 2.05%
CB1 (h); 10 µM (as printed in the xlsx)
  % Effect, CB1 (h) (Agonist effect): -6.83 (10 µM) %
CB1 (h); 100 μM
  % Effect, CB1 (h) (Agonist effect): -6.83%
CB1 (h); read-out: % Inhibition, CB1 (h) (Antagonist effect)
  inhibition at 100 µM: 5.59%
5-HT7 (h); [5]
  % Effect, 5-HT7 (h) (Agonist effect): -4.26% and -4.26 (10 µM) %
5-HT7 (h); read-out: % Inhibition, 5-HT7 (h) (Antagonist effect)
  inhibition at 10 µM: -25%
sst4 (h); [5]
  % Effect, sst4 (h) (Agonist effect): -7.88% and -7.88 (10 µM) %
sst4 (h); 50 μM, read-out: % Inhibition, sst4 (h) (Antagonist effect)
  inhibition at 50 µM: 8.25%
5-HT6 (h); [4]
  % Effect, 5-HT6 (h) (Agonist effect): -0.26% and -0.26 (100 µM) %
5-HT6 (h); read-out: % Inhibition, 5-HT6 (h) (Antagonist effect)
  inhibition at 100 µM: -6.42%
Alpha 1A (h); [4]
  % Effect, Alpha 1A (h) (Agonist effect): -2.05% and 2.05 (100 µM) %
Alpha 1A (h); read-out: % Inhibition, Alpha 1A (h) (Antagonist effect)
  inhibition at 100 µM: 1.28%
EAAT3
  effect on EAAT3-mediated glutamate uptake: no effects
Recombinant human CYP3A4; 10 μM, ± SD
  CYP3A4 activity: 100.4 ± 4.2 % of control
Recombinant human CYP3A4; only at the highest concentration of 25 μM
  effect on CYP3A4: slight inhibition
Acetylcholinesterase (h)
  inhibition at 10 µM: 1.59%
Human SV2A
  Ki: 275 µM and > 250 µM
Mouse SV2A
  Binding to mouse SV2A: no binding observed
hERG potassium channel
  inhibition at 100 µM: -8.02%
D2L (h); [4]
  % Effect, D2L (h) (Agonist effect): 0.22% and 0.22 (100 µM) %
D2L (h); read-out: % Inhibition, D2L (h) (Antagonist effect)
  inhibition at 100 µM: 3.27%
EAAT1
  effect on EAAT1-mediated glutamate uptake: no effects

## C[C@@H](C(=O)NCc1ccccc1)N1C(=O)CCC1=O [(S)-7, (S)-N-Benzyl-2-(2,5-dioxopyrrolidin-1-yl)propanamide]
Human SV2A
  Ki: 255 ± 69 µM
Mouse SV2A
  Binding to mouse SV2A: no binding observed
